Source: patent publication US11274083B2, “Substituted thiophenyl uracils, salts thereof and the use thereof as herbicidal agents” (Syngenta Crop Protection AG, priority 2017, dated 2022)

Assays:
Format in all cases: in vivo
Zea mays = test: Crop compatibility post-emergence, greenhouse pot test; details: application rate 5 g/ha
Procedure, shortened: (§1)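 Pot-grown plants in sandy loam, greenhouse, sprayed post-emergence at the one-leaf stage (2–3 weeks after sowing) with WP or EC formulations as aqueous spray plus 0.5% additive at 600 L/ha. Damage scored visually after about 3 weeks versus untreated controls, in % (0% = like control, 100% = dead).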

Oryza sativa = test: as above; details: application rate 5 g/ha
Procedure, shortened: as §1

Lolium rigidum [1] = test: Herbicidal action post-emergence, greenhouse pot test
Procedure, shortened: (§2)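 Greenhouse; sandy loam; one-leaf stage; WP or EC formulation; 80 g/ha or lower; 0.5% additive; 600 L/ha; visual % kill at about 3 weeks relative to untreated.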

Pharbitis purpurea [2] = test: as above
Procedure, shortened: as §2

Setaria viridis [3] = test: as above
Procedure, shortened: as §2

Viola tricolor [4] = test: as above
Procedure, shortened: as §2

Echinochloa crus-galli [5] = test: as above
Procedure, shortened: as §2

Hordeum murinum = test: as above
Procedure, shortened: as §2

Abutilon theophrasti [6] = test: as above
Procedure, shortened: as §2

Veronica persica [7] = test: as above
Procedure, shortened: as §2

Matricaria inodora [8] = test: as above
Procedure, shortened: as §2

Avena fatua = test: as above
Procedure, shortened: as §2

Amaranthus retroflexus [9] = test: as above
Procedure, shortened: as §2

Polygonum convolvulus [10] = test: as above
Procedure, shortened: as §2

Alopecurus myosuroides [11] = test: as above; details: scored visually after about 3 weeks vs untreated controls
Procedure, shortened: as §2

Stellaria media [12] = test: as above
Procedure, shortened: as §2

Digitaria sanguinalis = test: as above
Triticum aestivum = test: Crop compatibility post-emergence, greenhouse pot test; details: application rate 20 g/ha
Procedure, shortened: as §1

Lolium rigidum [13] = test: Herbicidal action pre-emergence, greenhouse pot test; details: application rate 320 g/ha
Procedure, shortened: (§3)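 Application rates were 320 g/ha or lower, delivered pre-emergence as a soil-surface spray with 0.5% additive in 600 L/ha water. Plants grew in a greenhouse for about 3 weeks and were then rated visually against untreated controls, 100% being complete kill.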

Pharbitis purpurea [14] = test: as above; details: application rate 320 g/ha
Procedure, shortened: as §3

Setaria viridis [15] = test: as above; details: application rate 320 g/ha
Procedure, shortened: as §3

Viola tricolor [16] = test: as above; details: application rate 320 g/ha
Procedure, shortened: as §3

Echinochloa crus-galli [17] = test: as above; details: application rate 320 g/ha
Procedure, shortened: as §3

Abutilon theophrasti [18] = test: as above; details: application rate 320 g/ha
Procedure, shortened: as §3

Veronica persica [19] = test: as above; details: application rate 320 g/ha
Procedure, shortened: as §3

Amaranthus retroflexus [20] = test: as above; details: application rate 320 g/ha
Procedure, shortened: as §3

Polygonum convolvulus [21] = test: as above; details: application rate 320 g/ha
Procedure, shortened: as §3

Alopecurus myosuroides [22] = test: as above; details: application rate 320 g/ha
Procedure, shortened: as §3

Stellaria media [23] = test: as above; details: application rate 320 g/ha
Procedure, shortened: as §3

Matricaria inodora [24] = test: as above; details: application rate 320 g/ha

CC(Sc1cc(-n2c(=O)cc(C(F)(F)F)n(C)c2=O)c(F)cc1Cl)C(=O)OC1COC(=O)C1 (stereo not shown) [I.1-144]
Zea mays (Efficacy in %) (Zea mays): 10%
Oryza sativa (Efficacy in %) (Oryza sativa): 20%
Lolium rigidum (Efficacy in %) (Lolium rigidum [1]; application rate 20 g/ha): 100%
Pharbitis purpurea (Efficacy in %) (Pharbitis purpurea [2]; application rate 20 g/ha): 100%
Setaria viridis (Efficacy in %) (Setaria viridis [3]; application rate 20 g/ha): 100%
Viola tricolor (Efficacy in %) (Viola tricolor [4]; application rate 20 g/ha): 100%
Echinochloa crus-galli (Efficacy in %) (Echinochloa crus-galli [5]; application rate 20 g/ha): 100%
Hordeum murinum (Efficacy in %) (Hordeum murinum; application rate 20 g/ha): 80%
Abutilon theophrasti (Efficacy in %) (Abutilon theophrasti [6]; application rate 20 g/ha): 100%
Veronica persica (Efficacy in %) (Veronica persica [7]; application rate 20 g/ha): 100%
Matricaria inodora (Efficacy in %) (Matricaria inodora [8]; application rate 20 g/ha): 100%
Avena fatua (Efficacy in %) (Avena fatua; application rate 20 g/ha): 100%
Amaranthus retroflexus (Efficacy in %) (Amaranthus retroflexus [9]; application rate 20 g/ha): 100%
Polygonum convolvulus (Efficacy in %) (Polygonum convolvulus [10]; application rate 20 g/ha): 100%
Alopecurus myosuroides (Efficacy in %) (Alopecurus myosuroides [11]; application rate 20 g/ha): 80%
Stellaria media (Efficacy in %) (Stellaria media [12]; application rate 20 g/ha): 80%
Digitaria sanguinalis (Efficacy in %) (Digitaria sanguinalis; application rate 20 g/ha): 80%

CCCOC(=O)CCOC(=O)C(C)Sc1cc(-n2c(=O)cc(C(F)(F)F)n(C)c2=O)c(F)cc1Cl (stereo not shown) [I.1-8]
Triticum aestivum (Efficacy in %) (Triticum aestivum): 20%
Oryza sativa (Efficacy in %) (Oryza sativa): 20%
Lolium rigidum (Efficacy in %) (Lolium rigidum [13]): 90%
Pharbitis purpurea (Efficacy in %) (Pharbitis purpurea [14]): 100%
Setaria viridis (Efficacy in %) (Setaria viridis [15]): 100%
Viola tricolor (Efficacy in %) (Viola tricolor [16]): 100%
Echinochloa crus-galli (Efficacy in %) (Echinochloa crus-galli [17]): 100%
Abutilon theophrasti (Efficacy in %) (Abutilon theophrasti [18]): 100%
Veronica persica (Efficacy in %) (Veronica persica [19]): 100%
Amaranthus retroflexus (Efficacy in %) (Amaranthus retroflexus [20]): 100%
Polygonum convolvulus (Efficacy in %) (Polygonum convolvulus [21]): 100%
Alopecurus myosuroides (Efficacy in %) (Alopecurus myosuroides [22]): 80%
Stellaria media (Efficacy in %) (Stellaria media [23]): 100%
Matricaria inodora (Efficacy in %) (Matricaria inodora [24]): 100%
Lolium rigidum (Efficacy in %) (Lolium rigidum [1]; application rate 80 g/ha): 90%
Pharbitis purpurea (Efficacy in %) (Pharbitis purpurea [2]; application rate 80 g/ha): 100%
Setaria viridis (Efficacy in %) (Setaria viridis [3]; application rate 80 g/ha): 100%
Viola tricolor (Efficacy in %) (Viola tricolor [4]; application rate 80 g/ha): 100%
Echinochloa crus-galli (Efficacy in %) (Echinochloa crus-galli [5]; application rate 80 g/ha): 100%
Hordeum murinum (Efficacy in %) (Hordeum murinum; application rate 80 g/ha): 90%
Abutilon theophrasti (Efficacy in %) (Abutilon theophrasti [6]; application rate 80 g/ha): 100%
Veronica persica (Efficacy in %) (Veronica persica [7]; application rate 80 g/ha): 100%
Matricaria inodora (Efficacy in %) (Matricaria inodora [8]; application rate 80 g/ha): 100%
Avena fatua (Efficacy in %) (Avena fatua; application rate 80 g/ha): 80%
Amaranthus retroflexus (Efficacy in %) (Amaranthus retroflexus [9]; application rate 80 g/ha): 100%
Polygonum convolvulus (Efficacy in %) (Polygonum convolvulus [10]; application rate 80 g/ha): 100%
Alopecurus myosuroides (Efficacy in %) (Alopecurus myosuroides [11]; application rate 80 g/ha): 90%
Stellaria media (Efficacy in %) (Stellaria media [12]; application rate 80 g/ha): 100%
Digitaria sanguinalis (Efficacy in %) (Digitaria sanguinalis; application rate 80 g/ha): 100%
